Legend:
Experiment in all cases: Test B pre-/postemergence plant response
Type in all cases: in vivo
[1] = test system: Surinam grass (Brachiaria decumbens)
Procedure, shortened: (§1)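 Plants treated either at seeding (loam/sand soil) or postemergence at 2 to 18 cm height, using a surfactant-containing non-phytotoxic solvent formulation. Evaluation was visual after 13 to 15 days, 0 to 100 scale relative to controls.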

[2] = test system: blackgrass (Alopecurus myosuroides)
Procedure, shortened: as §1

corn (Zea mays) = test system: corn (Zea mays)
Procedure, shortened: as §1

[3] = test system: downy bromegrass (Bromus tectorum)
Procedure, shortened: as §1

[4] = test system: goosegrass (Eleusine indica)
Procedure, shortened: as §1

[5] = test system: green foxtail (Setaria viridis)
Procedure, shortened: as §1

[6] = test system: johnsongrass (Sorghum halepense)
Procedure, shortened: as §1

kochia (Kochia scoparia) = test system: kochia (Kochia scoparia)
Procedure, shortened: as §1

[7] = test system: lambsquarters (Chenopodium album)
Procedure, shortened: as §1

[8] = test system: large crabgrass (Digitaria sanguinalis)
Procedure, shortened: as §1

[9] = test system: morningglory (Ipomoea coccinea)
Procedure, shortened: as §1

[10] = test system: pigweed (Amaranthus retroflexus)
Procedure, shortened: as §1

soybean (Glycine max) = test system: soybean (Glycine max)
Procedure, shortened: as §1

[11] = test system: velvetleaf (Abutilon theophrasti)
Procedure, shortened: as §1

wild oat (Avena fatua) = test system: wild oat (Avena fatua)
Procedure, shortened: as §1

[12] = test system: woolly cupgrass (Eriochloa villosa)
Procedure, shortened: as §1

[13] = test system: yellow nutsedge (Cyperus esculentus)
Procedure, shortened: as §1

[14] = 31 g ai/ha, postemergence, scale 0 to 100, 0 is no effect, 100 is complete control
[15] = Postemergence, 62 g ai/ha, scale 0 (no effect) to 100 (complete control), 13 to 15 days
[16] = Postemergence, 125 g ai/ha, visual rating after 13 to 15 days, scale 0 (no effect) to 100 (complete control)
[17] = Postemergence, 250 g ai/ha, scale 0 to 100 (0 no effect, 100 complete control)
[18] = Preemergence, 31 g ai/ha, scale 0 to 100 (0 no effect, 100 complete control)
[19] = Preemergence, 62 g ai/ha, scale 0 to 100, 0 no effect, 100 complete control
[20] = Preemergence, 125 g ai/ha, scale 0 to 100, 0 no effect, 100 complete control
[21] = 250 g ai/ha, Preemergence, 0 to 100 scale

## O=C1CCCC(O)=C1C(=O)c1cnc(-c2cccs2)n(-c2ccccc2)c1=O [Compound 66]
[1]; [14]
  Plant response rating, Surinam Grass: 65
[1]; [15]
  Plant response rating, Surinam Grass: 70
[1]; [16]
  Plant response rating, Surinam Grass: 85
[1]; [17]
  Plant response rating, Surinam Grass: 98
[1]; [18]
  Plant response rating, Surinam Grass: 35
[1]; [19]
  Plant response rating, Surinam Grass: 80
[1]; [20]
  Plant response rating, Surinam Grass: 90
[2]; [14]
  Plant response rating, Blackgrass: 5
[2]; [21]
  Plant response rating, Blackgrass: 5
[2]; [15]
  Plant response rating, Blackgrass: 10
[2]; [16]
  Plant response rating, Blackgrass: 10
[2]; [17]
  Plant response rating, Blackgrass: 15
[2]; [18]
  Plant response rating, Blackgrass: 0
[2]; [19]
  Plant response rating, Blackgrass: 0
[2]; [20]
  Plant response rating, Blackgrass: 5
Corn (Zea mays); [14]
  Plant response rating, Corn: 25
Corn (Zea mays); [21]
  Plant response rating, Corn: 0
Corn (Zea mays); [15]
  Plant response rating, Corn: 55
Corn (Zea mays); [16]
  Plant response rating, Corn: 70
Corn (Zea mays); [17]
  Plant response rating, Corn: 75
Corn (Zea mays); [18]
  Plant response rating, Corn: 0
Corn (Zea mays); [19]
  Plant response rating, Corn: 0
Corn (Zea mays); [20]
  Plant response rating, Corn: 0
[3]; [14]
  Plant response rating, Bromegrass, Downy: 5
[3]; [21]
  Plant response rating, Bromegrass, Downy: 0
[3]; [15]
  Plant response rating, Bromegrass, Downy: 10
[3]; [16]
  Plant response rating, Bromegrass, Downy: 20
[3]; [17]
  Plant response rating, Bromegrass, Downy: 25
[3]; [18]
  Plant response rating, Bromegrass, Downy: 0
[3]; [19]
  Plant response rating, Bromegrass, Downy: 0
[3]; [20]
  Plant response rating, Bromegrass, Downy: 0
[4]; [14]
  Plant response rating, Goosegrass: 65
[4]; [21]
  Plant response rating, Goosegrass: 98
[4]; [15]
  Plant response rating, Goosegrass: 65
[4]; [16]
  Plant response rating, Goosegrass: 70
[4]; [17]
  Plant response rating, Goosegrass: 95
[4]; [18]
  Plant response rating, Goosegrass: 35
[4]; [19]
  Plant response rating, Goosegrass: 75
[4]; [20]
  Plant response rating, Goosegrass: 90
[5]; [14]
  Plant response rating, Foxtail, Green: 80
[5]; [21]
  Plant response rating, Foxtail, Green: 75
[5]; [15]
  Plant response rating, Foxtail, Green: 85
[5]; [16]
  Plant response rating, Foxtail, Green: 90
[5]; [17]
  Plant response rating, Foxtail, Green: 98
[5]; [18]
  Plant response rating, Foxtail, Green: 0
[5]; [19]
  Plant response rating, Foxtail, Green: 5
[5]; [20]
  Plant response rating, Foxtail, Green: 30
[6]; [14]
  Plant response rating, Johnsongrass: 45
[6]; [21]
  Plant response rating, Johnsongrass: 98
[6]; [15]
  Plant response rating, Johnsongrass: 60
[6]; [16]
  Plant response rating, Johnsongrass: 65
[6]; [17]
  Plant response rating, Johnsongrass: 65
[6]; [18]
  Plant response rating, Johnsongrass: 0
[6]; [19]
  Plant response rating, Johnsongrass: 55
[6]; [20]
  Plant response rating, Johnsongrass: 85
Kochia (Kochia scoparia); [14]
  Plant response rating, Kochia: 80
Kochia (Kochia scoparia); [21]
  Plant response rating, Kochia: 85
Kochia (Kochia scoparia); [15]
  Plant response rating, Kochia: 85
Kochia (Kochia scoparia); [16]
  Plant response rating, Kochia: 90
Kochia (Kochia scoparia); [17]
  Plant response rating, Kochia: 98
Kochia (Kochia scoparia); [18]
  Plant response rating, Kochia: 80
Kochia (Kochia scoparia); [19]
  Plant response rating, Kochia: 80
Kochia (Kochia scoparia); [20]
  Plant response rating, Kochia: 85
[7]; [14]
  Plant response rating, Lambsquarters: 95
[7]; [21]
  Plant response rating, Lambsquarters: 100
[7]; [15]
  Plant response rating, Lambsquarters: 95
[7]; [16]
  Plant response rating, Lambsquarters: 95
[7]; [17]
  Plant response rating, Lambsquarters: 100
[7]; [18]
  Plant response rating, Lambsquarters: 98
[7]; [19]
  Plant response rating, Lambsquarters: 98
[7]; [20]
  Plant response rating, Lambsquarters: 98
[8]; [14]
  Plant response rating, Crabgrass, Large: 50
[8]; [21]
  Plant response rating, Crabgrass, Large: 100
[8]; [15]
  Plant response rating, Crabgrass, Large: 55
[8]; [16]
  Plant response rating, Crabgrass, Large: 65
[8]; [17]
  Plant response rating, Crabgrass, Large: 70
[8]; [18]
  Plant response rating, Crabgrass, Large: 70
[8]; [19]
  Plant response rating, Crabgrass, Large: 85
[8]; [20]
  Plant response rating, Crabgrass, Large: 95
[9]; [14]
  Plant response rating, Morningglory: 98
[9]; [15]
  Plant response rating, Morningglory: 100
[9]; [16]
  Plant response rating, Morningglory: 100
[9]; [17]
  Plant response rating, Morningglory: 100
[9]; [18]
  Plant response rating, Morningglory: 0
[9]; [19]
  Plant response rating, Morningglory: 20
[9]; [20]
  Plant response rating, Morningglory: 25
[10]; [14]
  Plant response rating, Pigweed: 98
[10]; [15]
  Plant response rating, Pigweed: 98
[10]; [16]
  Plant response rating, Pigweed: 100
[10]; [17]
  Plant response rating, Pigweed: 100
[10]; [18]
  Plant response rating, Pigweed: 98
[10]; [19]
  Plant response rating, Pigweed: 98
[10]; [20]
  Plant response rating, Pigweed: 98
Soybean (Glycine max); [14]
  Plant response rating, Soybean: 95
Soybean (Glycine max); [15]
  Plant response rating, Soybean: 95
Soybean (Glycine max); [16]
  Plant response rating, Soybean: 98
Soybean (Glycine max); [17]
  Plant response rating, Soybean: 98
[11]; [14]
  Plant response rating, Velvetleaf: 85
[11]; [15]
  Plant response rating, Velvetleaf: 90
[11]; [16]
  Plant response rating, Velvetleaf: 98
[11]; [17]
  Plant response rating, Velvetleaf: 100
[11]; [18]
  Plant response rating, Velvetleaf: 80
[11]; [19]
  Plant response rating, Velvetleaf: 80
[11]; [20]
  Plant response rating, Velvetleaf: 95
Wild oat (Avena fatua); [14]
  Plant response rating, Oat, Wild: 0
Wild oat (Avena fatua); [15]
  Plant response rating, Oat, Wild: 0
Wild oat (Avena fatua); [16]
  Plant response rating, Oat, Wild: 5
Wild oat (Avena fatua); [17]
  Plant response rating, Oat, Wild: 10
Wild oat (Avena fatua); [18]
  Plant response rating, Oat, Wild: 0
Wild oat (Avena fatua); [19]
  Plant response rating, Oat, Wild: 0
Wild oat (Avena fatua); [20]
  Plant response rating, Oat, Wild: 0
[12]; [14]
  Plant response rating, Cupgrass, Woolly: 40
[12]; [21]
  Plant response rating, Cupgrass, Woolly: 75
[12]; [15]
  Plant response rating, Cupgrass, Woolly: 40
[12]; [16]
  Plant response rating, Cupgrass, Woolly: 60
[12]; [17]
  Plant response rating, Cupgrass, Woolly: 75
[12]; [18]
  Plant response rating, Cupgrass, Woolly: 25
[12]; [19]
  Plant response rating, Cupgrass, Woolly: 40
[12]; [20]
  Plant response rating, Cupgrass, Woolly: 60
[13]; [14]
  Plant response rating, Nutsedge, Yellow: 25
[13]; [15]
  Plant response rating, Nutsedge, Yellow: 45
[13]; [16]
  Plant response rating, Nutsedge, Yellow: 65
[13]; [17]
  Plant response rating, Nutsedge, Yellow: 70
[13]; [18]
  Plant response rating, Nutsedge, Yellow: 10
[13]; [19]
  Plant response rating, Nutsedge, Yellow: 30
[13]; [20]
  Plant response rating, Nutsedge, Yellow: 85

From patent US8952024B2, “Herbicidal pyrimidone derivatives” (E I du Pont de Nemours and Company, priority 2009, dated 2015)
